Laboratory results: the NIST ThermoML archive (doi:10.1021/acs.jced.6b00169)
“And” between values parts separate entries of the source, which are not always exact repeats. Identical values can stand only once.

Conditions: for vapor or sublimation pressure: Liquid, Closed cell (Static) method; for mass density: Fluid (supercritical or subcritical phases), isochoric method

FC(F)(F)/C=C\C(F)(F)F [(Z)-1,1,1,4,4,4-hexafluorobut-2-ene]
Conditions | vapor or sublimation pressure
323.47 K | 182.2 kPa
323.49 K | 177.9 kPa
323.5 K | 180.6 kPa [middle of 4 runs]
323.51 K | 181.2 kPa [middle of 7 runs]
323.52 K | 180.2 kPa [middle of 5 runs]
323.53 K | 182.1 kPa and 186.3 kPa
333.44 K | 247.7 kPa
333.45 K | 248.1 kPa
333.46 K | 243.8 kPa
333.47 K | 247.2 kPa and 243.5 kPa
333.48 K | 246.1 kPa and 248.3 kPa
333.49 K | 247.6 kPa [middle of 9 runs]
333.5 K | 254.8 kPa
343.45 K | 331.8 kPa
343.46 K | 331.6 kPa
343.48 K | 331.2 kPa [middle of 6 runs]
343.49 K | 330.6 kPa [middle of 7 runs]
343.5 K | 343.2 kPa and 336.4 kPa and 331.7 kPa
353.46 K | 435.3 kPa
353.47 K | 435.3 kPa
353.48 K | 435.2 kPa and 429.9 kPa and 430.2 kPa
353.49 K | 435.2 kPa [middle of 5 runs]
353.5 K | 434.6 kPa [middle of 4 runs]
363.46 K | 562 kPa and 561.7 kPa
363.47 K | 555.8 kPa and 556.4 kPa
363.48 K | 562.1 kPa [middle of 4 runs]
363.49 K | 562.2 kPa [middle of 5 runs]
363.5 K | 567.8 kPa and 559.4 kPa
373.45 K | 714 kPa
373.47 K | 714.4 kPa [middle of 4 runs]
373.48 K | 731.7 kPa and 715.2 kPa
373.49 K | 713.5 kPa [middle of 5 runs]
373.5 K | 716.9 kPa [middle of 4 runs]
383.45 K | 895.1 kPa
383.46 K | 888.7 kPa
383.47 K | 896.6 kPa and 889.9 kPa and 895.9 kPa
383.48 K | 896.5 kPa and 895.3 kPa
383.49 K | 893.4 kPa [middle of 6 runs]
383.5 K | 921.5 kPa and 896.4 kPa
393.47 K | 1103.1 kPa and 1109.7 kPa
393.48 K | 1112.1 kPa and 1110.3 kPa
393.49 K | 1109.6 kPa [middle of 4 runs]
393.5 K | 1111.5 kPa [middle of 4 runs]
393.51 K | 1113.3 kPa and 1107 kPa
403.41 K | 1365.2 kPa
403.47 K | 1361.3 kPa
403.48 K | 1355 kPa
403.49 K | 1364.2 kPa [middle of 4 runs]
403.5 K | 1358.5 kPa and 1362.4 kPa
403.51 K | 1363.4 kPa and 1358.6 kPa and 1364.3 kPa
413.47 K | 1648.2 kPa and 1655.1 kPa
413.49 K | 1657.8 kPa [middle of 4 runs]
413.5 K | 1651.9 kPa
413.51 K | 1658.4 kPa [middle of 4 runs]
423.47 K | 1995.7 kPa
423.48 K | 2000.2 kPa and 1989.3 kPa
423.49 K | 2000.4 kPa and 1992.9 kPa and 1997.8 kPa
423.5 K | 1990 kPa and 1999.2 kPa
423.51 K | 1999.9 kPa and 1993.1 kPa and 1999.7 kPa
433.46 K | 2391.8 kPa
433.47 K | 2384.5 kPa
433.49 K | 2396.8 kPa and 2389.4 kPa and 2393.9 kPa
433.5 K | 2385.2 kPa and 2388.6 kPa
433.51 K | 2396.2 kPa
433.52 K | 2395.9 kPa
443.45 K | 2854.5 kPa
443.47 K | 2837.9 kPa
443.5 K | 2847.4 kPa and 2860.1 kPa
443.51 K | 2859.8 kPa and 2850.8 kPa

Conditions | mass density [kg/m3]
333.47 K, 5013.6 kPa | 1294.9
333.49 K, 4294.8 kPa | 1291.4
343.5 K, 9927.3 kPa | 1290.8
353.5 K, 1179.2 kPa | 1214.2
363.49 K, 3108.6 kPa | 1196.7
363.5 K, 5627.6 kPa | 1213.6
373.49 K, 7319.3 kPa | 1196.2
383.48 K, 2373.8 kPa | 1121.1
393.48 K, 5697.9 kPa | 1120.5
393.51 K, 1151.8 kPa | 1038.9
403.48 K, 1382.1 kPa | 964.9
403.49 K, 1273.1 kPa | 87.8
403.5 K, 9039.9 kPa | 1120
403.51 K, 2538.6 kPa | 1038.4
413.48 K, 1705.4 kPa | 964.4
413.49 K, 1667.6 kPa | 884.8
413.5 K, 1339.2 kPa | 87.8
413.51 K, 5100.3 kPa | 1037.9
423.48 K, 3720.9 kPa | 964
423.49 K, 2049.1 kPa | 884.4
423.5 K, 1403.2 kPa | 87.7
423.51 K, 7690 kPa | 1037.4
433.47 K, 2440.9 kPa | 790.6
433.49 K, 1466 kPa | 87.7
433.49 K, 3342.9 kPa | 883.9
433.49 K, 5765 kPa | 963.5
433.5 K, 2159.2 kPa | 167.2
443.48 K, 2727.2 kPa | 261.3
443.48 K, 3403.1 kPa | 790.2
443.49 K, 2855.8 kPa | 451.8
443.49 K, 2856.2 kPa | 410.2
443.49 K, 2906.1 kPa | 659.8
443.49 K, 4930.5 kPa | 883.5
443.5 K, 1526.7 kPa | 87.6
443.5 K, 2301.4 kPa | 167.1
443.5 K, 2856.5 kPa | 556.1
443.5 K, 2857 kPa | 496.8
443.5 K, 3041.4 kPa | 734.7
443.5 K, 7837.5 kPa | 963.1
443.51 K, 2855.3 kPa | 532.1
443.51 K, 2860.2 kPa | 589.2
444.48 K, 2904 kPa | 410.2
444.48 K, 2905.8 kPa | 451.8
444.49 K, 2907.9 kPa | 496.8
444.49 K, 2909.6 kPa | 556.1
444.5 K, 2907.5 kPa | 532.1
444.5 K, 2918.3 kPa | 589.2
445.48 K, 2948.7 kPa | 410.1
445.48 K, 2955 kPa | 451.8
445.49 K, 2960.5 kPa | 496.8
445.49 K, 2967.6 kPa | 556.1
445.49 K, 2979 kPa | 589.2
445.5 K, 2963.5 kPa | 532.1
446.47 K, 2992.8 kPa | 410.1
446.47 K, 3039.9 kPa | 589.2
446.48 K, 3003.8 kPa | 451.8
446.49 K, 3019.2 kPa | 532.1
446.49 K, 3024.7 kPa | 556
446.5 K, 3013.3 kPa | 496.8
447.47 K, 3036.6 kPa | 410.1
447.49 K, 3052.3 kPa | 451.8
447.49 K, 3075.5 kPa | 532
447.49 K, 3102.7 kPa | 589.1
447.5 K, 3083 kPa | 556
447.51 K, 3065.9 kPa | 496.8
448.47 K, 3080.1 kPa | 410.1
448.48 K, 3099.7 kPa | 451.7
448.49 K, 3131.1 kPa | 532
448.49 K, 3165.1 kPa | 589.1
448.5 K, 3117.9 kPa | 496.7
448.5 K, 3140.9 kPa | 556
449.46 K, 3123.1 kPa | 410.1
449.48 K, 3147.7 kPa | 451.7
449.49 K, 3187.7 kPa | 532
449.5 K, 3170.6 kPa | 496.7
449.5 K, 3200.1 kPa | 556
449.5 K, 3229.7 kPa | 589.1
450.46 K, 3166.1 kPa | 410
450.48 K, 3195.5 kPa | 451.7
450.5 K, 3223.3 kPa | 496.7
450.5 K, 3259.2 kPa | 555.9
450.5 K, 3293.6 kPa | 589
450.51 K, 3244.9 kPa | 532
451.47 K, 3209.5 kPa | 410
451.48 K, 3243 kPa | 451.7
451.49 K, 3357.7 kPa | 589
451.5 K, 3275.9 kPa | 496.7
451.5 K, 3318.3 kPa | 555.9
451.51 K, 3300.8 kPa | 531.9
452.47 K, 3252.2 kPa | 410
452.48 K, 3290.8 kPa | 451.7
452.49 K, 3328.2 kPa | 496.6
452.49 K, 3378.2 kPa | 555.9
452.49 K, 3422.9 kPa | 589
452.5 K, 3358.3 kPa | 531.9
453.47 K, 3294.8 kPa | 410
453.48 K, 3200.2 kPa | 348.3
453.49 K, 3338.4 kPa | 451.6
453.49 K, 3381.2 kPa | 496.6
453.49 K, 4021.4 kPa | 734.4
453.49 K, 9923.8 kPa | 962.6
453.5 K, 1586.1 kPa | 87.6
453.5 K, 2978.8 kPa | 261.1
453.5 K, 3415.5 kPa | 531.9
453.5 K, 3438.5 kPa | 555.9
453.5 K, 3477.4 kPa | 589
453.5 K, 3489.4 kPa | 589
453.5 K, 3654.8 kPa | 659.5
453.5 K, 4584 kPa | 789.8
453.5 K, 6552.2 kPa | 883.1
453.51 K, 2439 kPa | 167
453.51 K, 3355.4 kPa | 473.8
453.51 K, 3423.1 kPa | 534.1
453.52 K, 3308.4 kPa | 416.3
463.47 K, 3811.6 kPa | 451.7
463.48 K, 3548.1 kPa | 348.1
463.49 K, 5796.3 kPa | 789.4
463.5 K, 1644.5 kPa | 87.5
463.5 K, 3221.4 kPa | 261
463.5 K, 4145.4 kPa | 588.7
463.5 K, 4465.6 kPa | 659.2
463.5 K, 8195.5 kPa | 882.7
463.51 K, 2573 kPa | 166.9
463.51 K, 3856.7 kPa | 473.6
463.51 K, 4003.3 kPa | 533.8
463.52 K, 3741 kPa | 416.1
463.84 K, 5039.9 kPa | 734
473.46 K, 4282.9 kPa | 451.5
473.49 K, 3889.2 kPa | 347.9
473.49 K, 5297.9 kPa | 658.9
473.49 K, 6084.9 kPa | 733.7
473.49 K, 7031.2 kPa | 789.1
473.5 K, 1702.6 kPa | 87.5
473.5 K, 3458.3 kPa | 260.9
473.5 K, 4828.4 kPa | 588.4
473.5 K, 9855 kPa | 882.3
473.51 K, 2705 kPa | 166.8
473.51 K, 4169.1 kPa | 416
473.51 K, 4592.6 kPa | 533.6
473.52 K, 4360 kPa | 473.3
483.45 K, 4753 kPa | 451.3
483.48 K, 8280.1 kPa | 788.7
483.49 K, 4225.7 kPa | 347.8
483.49 K, 6143.2 kPa | 658.6
483.5 K, 1760.4 kPa | 87.5
483.5 K, 3690.6 kPa | 260.8
483.5 K, 4863.2 kPa | 473.1
483.5 K, 5186.3 kPa | 533.3
483.5 K, 5522.5 kPa | 588.1
483.51 K, 2834.3 kPa | 166.8
483.51 K, 4596.7 kPa | 415.8
483.51 K, 7145.4 kPa | 733.3
493.49 K, 4559.3 kPa | 347.6
493.5 K, 3920 kPa | 260.6
493.5 K, 6223.9 kPa | 587.8
493.51 K, 1817.2 kPa | 87.4
493.51 K, 2962 kPa | 166.7
493.51 K, 5368 kPa | 472.9
503.5 K, 4890.2 kPa | 347.4
503.51 K, 6930.9 kPa | 587.6
